Experimental data as given in patent US12312359B2 (Vitae Pharmaceuticals, LLC, priority 2016, dated 2025).

Tests used:
[1] = target: T1, biotinylated wild-type menin and MLL-AF9 fusion protein (menin/MLL binding) (Homo sapiens, UniProt O00255); assay: Assay 1: menin/MLL binding AlphaLISA assay, wild-type menin; conditions: Table 30; column head does not say wild-type or mutated menin
T1 construct: made in house; host or cells: menin: E. coli; MLL-AF9-FLAG: HEK293 cells, used as cleared lysate
T1 sequence (O00255 1-610): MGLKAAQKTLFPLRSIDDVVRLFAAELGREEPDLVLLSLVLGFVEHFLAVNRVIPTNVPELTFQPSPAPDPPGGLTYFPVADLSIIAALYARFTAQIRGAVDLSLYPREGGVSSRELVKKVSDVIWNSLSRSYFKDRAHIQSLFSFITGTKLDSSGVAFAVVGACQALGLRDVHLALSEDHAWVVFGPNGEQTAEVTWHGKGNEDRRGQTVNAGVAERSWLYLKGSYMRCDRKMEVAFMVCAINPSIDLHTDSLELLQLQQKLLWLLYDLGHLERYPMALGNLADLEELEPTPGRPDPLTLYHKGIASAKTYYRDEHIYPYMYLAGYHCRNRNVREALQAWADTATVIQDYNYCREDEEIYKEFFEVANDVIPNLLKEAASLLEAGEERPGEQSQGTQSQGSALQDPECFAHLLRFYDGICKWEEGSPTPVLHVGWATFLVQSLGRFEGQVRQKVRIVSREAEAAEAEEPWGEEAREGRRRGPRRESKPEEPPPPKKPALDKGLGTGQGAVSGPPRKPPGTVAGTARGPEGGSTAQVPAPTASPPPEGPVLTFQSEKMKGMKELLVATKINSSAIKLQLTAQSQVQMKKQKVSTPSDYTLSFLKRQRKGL
How it was run: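 Compound was preincubated 30 min at room temperature with biotinylated menin (5 nM) and MLL-AF9-FLAG lysate from HEK293 cells, pH 7.4 buffer with 5% DMSO and DTT. Bead-based Alpha signal after 60 min with streptavidin donor and anti-FLAG acceptor beads; four-parameter logistic fit gave IC50.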

[2] = system: human acute monocytic leukemia cell line MV-4-11; assay: Assay 2: cell proliferation assay (ATP quantitation, CellTiter-Glo), MV-4-11; assay type: cell-based; conditions: Homo sapiens, MV4-11, 72 h, MV-4-11 cells
How it was run: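 Read-out is CellTiter-Glo luminescence quantifying ATP. Compound exposure lasted 72 h at 37° C., 5% CO2, with 1.67×10^4 MV-4-11 cells per well in 10% FBS medium, alongside HL-60 toxicity-control cells.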

IC50 [1] [nM]	EC50 [2] [nM]	Compound
< 100	< 100	C=C(C)c1ccccc1-c1cc(F)ccc1Oc1cncnc1N1CCC2(CCN(Cc3ccc4[nH]c(=O)[nH]c4c3)C2)C1 (stereo not drawn) [Example 161, 5-((7-(5-((5-fluoro-2′-(prop-1-en-2-yl)-[1,1′-biphenyl]-2-yl)oxy)pyrimidin-4-yl)-2,7-diazaspiro[4.4]nonan-2-yl)methyl)-1,3-dihydro-2H-benzo[d]imidazol-2-one]
< 100	< 100	CC(C)c1ncncc1-c1cc(F)ccc1Oc1cncnc1N1CC2(CN(C(=O)Cc3ccc(C#N)cc3)C2)C1 [Example 227, 4-(2-(6-(5-(4-fluoro-2-(4-isopropylpyrimidin-5-yl)phenoxy)pyrimidin-4-yl)-2,6-diazaspiro[3.3]heptan-2-yl)-2-oxoethyl)benzonitrile]
< 100	< 100	CCc1ncccc1-c1cc(F)ccc1Oc1cncnc1N1CCC2(CCN(Cc3ccc4[nH]c(=O)[nH]c4c3)C2)C1 (stereo not drawn) [Example 234, 5-((7-(5-(2-(2-ethylpyridin-3-yl)-4-fluorophenoxy)pyrimidin-4-yl)-2,7-diazaspiro [4.4]nonan-2-yl)methyl)-1,3-dihydro-2H-benzo[d]imidazol-2-one]
< 100	100 to 1000	CC(C)c1ncncc1-c1cc(F)ccc1Oc1cncnc1N1CC2(CC(NC(C)c3ccc(C#N)cc3)C2)C1 (stereo not drawn) [Example 141, 4-(1-((2-(5-(4-fluoro-2-(4-isopropylpyrimidin-5-yl)phenoxy)pyrimidin-4-yl)-2-azaspiro[3.3]heptan-6-yl)amino)ethyl)benzo-nitrile]
< 100	< 100	CC(C)N(C(=O)c1cc(F)ccc1Oc1cncnc1N1CC2(CN(CC[C@H]3CC[C@H](NC(=O)OC(C)(C)C)CC3)C2)C1)C(C)C [Example 115, tert-butyl ((1r,4r)-4-(2-(6-(5-(2-(diisopropylcarbamoyl)-4-fluorophenoxy)pyrimidin-4-yl)-2,6-diazaspiro[3.3]heptan-2-yl)ethyl)cyclohexyl) carbamate]
< 100	< 100	CC(C)c1ncncc1-c1cc(F)ccc1Oc1cncnc1N1CCC2(CCN(Cc3ccc4[nH]c(=O)[nH]c4c3)C2)C1 (single isomer, unassigned) [Example 160A, 5-((7-(5-(4-fluoro-2-(4-isopropylpyrimidin-5-yl)phenoxy)pyrimidin-4-yl)-2,7-diazaspiro[4.4]nonan-2-yl)methyl)-1,3-dihydro-2H-benzo[d]imidazol-2-one]
< 100	100 to 1000	COC(=O)N(C)c1cc(F)ccc1Oc1cncnc1N1CCC2(CCN(Cc3ccc4[nH]c(=O)[nH]c4c3)C2)C1 (stereo not drawn) [Example 207, methyl (5-fluoro-2-((4-(7-((2-oxo-2,3-dihydro-1H-benzo[d]imidazol-5-yl)methyl)-2,7-diazaspiro[4.4]nonan-2-yl)pyrimidin-5-yl)oxy)phenyl) (methyl)carbamate]
< 100	< 100	CC(C)c1ncncc1-c1cc(F)ccc1Oc1cncnc1N1CC2(CN(CC3CCCC(F)(F)C3)C2)C1 (stereo not drawn) [Example 232, 2-((3,3-difluorocyclohexyl)methyl)-6-(5-(4-fluoro-2-(4-isopropylpyrimidin-5-yl)phenoxy)pyrimidin-4-yl)-2,6-diazaspiro[3.3] heptane]
< 100	< 100	CC(C)c1ncncc1-c1cc(F)ccc1Oc1cncnc1N1CC2(CCN(C(=O)Cc3ccc(C#N)cc3)C2)C1 [Example 149, 4-(2-(2-(5-(4-fluoro-2-(4-isopropylpyrimidin-5-yl)phenoxy)pyrimidin-4-yl)-2,6-diazaspiro[3.4]octan-6-yl)-2-oxoethyl)benzonitrile]
< 100	< 100	CC(C)n1nccc1-c1cc(F)ccc1Oc1cncnc1N1CCC2(CCN(Cc3ccc4[nH]c(=O)[nH]c4c3)C2)C1 (single isomer, unassigned) [Example 197A, 5-((7-(5-(4-fluoro-2-(1-isopropyl-1H-pyrazol-5-yl)phenoxy)pyrimidin-4-yl)-2,7-diazaspiro[4.4]nonan-2-yl)methyl)-1,3-dihydro-2H-benzo[d]imidazol-2-one]

Second part, the compound before the results:

Compound	IC50 [1] [nM]	EC50 [2] [nM]
Cn1c(=O)[nH]c2ccc(CN3CCC4(CCC(c5ncncc5Oc5ccc(F)cc5Cl)C4)C3)cc21 (stereo not drawn) [Example 27, 6-((7-(5-(2-chloro-4-fluorophenoxy)pyrimidin-4-yl)-2-azaspiro[4.4]nonan-2-yl)methyl)-1-methyl-1H-benzo[d]imidazol-2(3H)-one]	< 100	≥ 1000
CC(C)N(C)C(=O)c1cc(F)ccc1Oc1cncnc1N1CC2(CC(NC[C@H]3CC[C@H](NC(=O)OC(C)(C)C)CC3)C2)C1 [Example 83, tert-butyl ((1r,4r)-4-(((2-(5-(4-fluoro-2-(isopropyl(methyl)carbamoyl)phenoxy)pyrimidin-4-yl)-2-azaspiro[3.3]heptan-6-yl)amino)methyl)cyclohexyl)carbamate]	< 100	100 to 1000
N#Cc1ccc(-c2cc(F)ccc2Oc2cncnc2N2CCC3(CCN(Cc4ccc5[nH]c(=O)[nH]c5c4)C3)C2)c(C2CC2)c1 (single isomer, unassigned) [Example 42A, 2-cyclopropyl-5′-fluoro-2′-((4-(7-((2-oxo-2,3-dihydro-1H-benzo[d]imidazol-5-yl)methyl)-2,7-diazaspiro[4.4]nonan-2-yl)pyrimidin-5-yl)oxy)-[1,1′-biphenyl]-4-carbonitrile]	< 100	< 100
NC(=O)c1ccc(-c2cc(F)ccc2Oc2cncnc2N2CCC3(CCN(Cc4ccc5[nH]c(=O)[nH]c5c4)C3)C2)c(C2CC2)c1 (stereo not drawn) [Example 43, 2-cyclopropyl-5′-fluoro-2′-((4-(7-((2-oxo-2,3-dihydro-1H-benzo[d]imidazol-5-yl)methyl)-2,7-diazaspiro[4.4]nonan-2-yl)pyrimidin-5-yl)oxy)-[1,1′-biphenyl]-4-carboxamide]	< 100	< 100
CC(C)(C)OC(=O)N[C@H]1CC[C@H](CCN2CC3(C2)CN(c2ncncc2Oc2ccc(F)cc2-c2cccnc2C2CC2)C3)CC1 [Example 88, tert-butyl ((1r,4r)-4-(2-(6-(5-(2-(2-cyclopropylpyridin-3-yl)-4-fluorophenoxy)pyrimidin-4-yl)-2,6-diazaspiro[3.3]heptan-2-yl)ethyl)cyclohexyl) carbamate]	< 100	< 100
Fc1ccc(Oc2cncnc2N2CCC3(CCN(CC4CCOCC4)C3)C2)c(OC2CCCC2)c1 (stereo not drawn) [Example 108, 2-(5-(2-(cyclopentyloxy)-4-fluorophenoxy)pyrimidin-4-yl)-7-((tetrahydro-2H-pyran-4-yl)methyl)-2,7-diazaspiro[4.4]nonane]	< 100	≥ 1000
Cn1c(-c2cc(F)ccc2Oc2cncnc2N2CCC3(CCN(Cc4ccc5[nH]c(=O)[nH]c5c4)C3)C2)c(C2CC2)ccc1=O (racemic) [Example 29, 5-((7-(5-(2-(3-cyclopropyl-1-methyl-6-oxo-1,6-dihydropyridin-2-yl)-4-fluorophenoxy)pyrimidin-4-yl)-2,7-diazaspiro[4.4]nonan-2-yl)methyl)-1,3-dihydro-2H-benzo[d]imidazol-2-one]	< 100	< 100
CC(C)N(C(=O)c1cc(F)ccc1Oc1cncnc1N1CC2(CCN(CC(C)(C)C)C2)C1)C(C)C [Example 102, 5-fluoro-N,N-diisopropyl-2-((4-(6-neopentyl-2,6-diazaspiro[3.4]octan-2-yl)pyrimidin-5-yl)oxy)benzamide]	< 100	< 100
CC(C)N(C(=O)c1cc(F)ccc1Oc1cncnc1N1CC2(CCN(CC3CCC(O)CC3)CC2)C1)C(C)C (stereo not drawn) [Example 98, 5-fluoro-2-((4-(7-((4-hydroxycyclohexyl)methyl)-2,7-diazaspiro[3.5]nonan-2-yl)pyrimidin-5-yl)oxy)-N,N-diisopropylbenzamide]	< 100	100 to 1000
CC(C)N(C(=O)c1cc(F)ccc1Oc1cncnc1N1CC2(CCN(C(=O)Cc3ccc(C#N)cc3)C2)C1)C(C)C [Example 113, 2-((4-(6-(2-(4-cyanophenyl)acetyl)-2,6-diazaspiro[3.4]octan-2-yl)pyrimidin-5-yl)oxy)-5-fluoro-N,N-diisopropylbenzamide]	< 100	< 100
CC(O)c1ccccc1-c1cc(F)ccc1Oc1cncnc1N1CCC2(CCN(Cc3ccc4[nH]c(=O)[nH]c4c3)C2)C1 (stereo not drawn) [Example 60, 5-((7-(5-((5-fluoro-2′-(1-hydroxyethyl)-[1,1′-biphenyl]-2-yl)oxy)pyrimidin-4-yl)-2,7-diazaspiro[4.4]nonan-2-yl)methyl)-1H-benzo[d]imidazol-2(3H)-one]	< 100	100 to 1000
